According to patent publication US20090137565A1, “Method for treatment of movement disorders” (The Trustees of Columbia University in the City of New York, priority 2004, published 2009):

Assays:
[1] = test system: severe alcohol-responsive posthypoxic myoclonus; assay: Single-patient open-label dose-finding trial of GHB, blinded Unified Myoclonus Rating Scale (UMRS); assay type: in vivo, human; conditions: for UMRS I (Self Assessment) score: max 44, 0 gm score 33; for UMRS VIII (Severity) score: max 3, 0 gm score 2; for UMRS I (Global Disability) score / UMRS VI (MD Global Disab.) score: max 4, 0 gm score 3; for UMRS III (Stimulus-Sens.) score: max 17, 0 gm score 12; for UMRS V (Funct. Performance) score: max 20, 0 gm score 20; for UMRS II (Myoclonus @ Rest) score: max 128, 0 gm score 21; for UMRS IV (Action Myoclonus) score: max 160, 0 gm score 108; for UMRS VII (Neg. Myoclonus) score: present (1) or absent (0), 0 gm score 1
Description: An open-label, dose-finding, blinded rating trial of GHB in a single patient with severe, debilitating alcohol-responsive posthypoxic myoclonus refractory to treatment with standard anti-myoclonic agents was conduced. […] Intensity and severity of myoclonus was measured using the Unified Myoclonus Rating Scale (UMRS), a non-invasive clinical rating scale. In addition, the patient was videotaped while the UMRS was performed, so that myoclonus could be scored by a blinded rater.
Given the dramatic response to alcohol, a single-patient, open-label, dose-ranging trial to assess the tolerability and efficacy of GHB (Xyrem®, Orphan Medical, Inc.) as a treatment for alcohol-responsive posthypoxic myoclonus was designed, which was approved by The Columbia University Medical Center Institutional Review Board. After obtaining informed consent, they were videotaped during performance of the Unified Myoclonus Rating Scale (UMRS). The UMRS is a validated clinical rating instrument that measures the severity and intensity of myoclonus and has been used in other trials of anti-myoclonic agents. Frucht S. J., et al., Adv Neurology Vol. 89 Lippincott Williams and Wilkins, Philadelphia, 2002:361-376. The scale consists of eight sections: section I: patient questionnaire (11 items); section II: myoclonus at rest (frequency and amplitude, 16 items); section III: stimulus-sensitive myoclonus (17 items); section IV: severity of myoclonus with action (frequency and amplitude, 20 items); section V: performance on functional tests (5 items); section VI: physician rating of patient's global disability (1 item); section VII: presence of negative myoclonus (1 item); section VIII: severity of negative myoclonus (1 item). Each item is rated on a scale of 0 to 4, with higher scores assigned to myoclonus of greater severity or frequency. For section III stimulus-sensitivity is either present (1) or absent (0); section VII negative myoclonus either present (1) or absent (0); and section VIII negative myoclonus absent (0) to severe (3).
All office visits and the UMRS scale were performed by the supervisory physician. The patient came to the office for five visits, each separated by two weeks (time 0, 2 weeks, 4 weeks, 6 weeks and 8 weeks). At each visit, the physician examined the patient, and inquired about any adverse events. The physician performed the UMRS while the patient was videotaped. Xyrem® was dispensed by the physician at each visit.
At the initial visit the UMRS was performed and videotaped, 1 gm of GHB was administered by mouth, and they were monitored in the office for one hour. They then took 1 gm twice daily for two weeks, at which time they returned to the office. One hour after receiving 2 grams of GHB, the UMRS was performed and videotaped and for the next two weeks they took 2 grams twice daily. Two weeks later, the UMRS was performed and videotaped one hour after receiving 3 grams of GHB, and after two weeks of 3 grams twice daily, the same procedure was performed after receiving 4 grams in the office. After taking 4 grams twice daily for two weeks, they returned for UMRS videotaping, and the decision was made to continue the target dose of 4 gm twice daily.
A movement disorder neurologist blinded to the trial design scored videotapes of the baseline visit, 2 gm, 3 gm, 4 gm (first) and 4 gm (second) visits in random order. The blinded rater was not provided with treatment scores of section I of the UMRS (patient self-assessment) in order to maintain the rating blind. Scores for each section were calculated as described previously. Frucht S. J., et al., Adv Neurology Vol. 89. Lippincott Williams and Wilkins, Philadelphia, 2002:361-376.

[2] = test system: medication-refractory hyperkinetic movements; assay: Twenty-patient trial: clinical course (onset, wear-off, continuation); assay type: in vivo, human; conditions: noted by most patients at higher doses
From the text: Twelve men and 8 women enrolled. Results from patients #6, and #s 1, 2, 7, 12, and 13 were reported previously. Frucht, S. J., et al. Mov Disord 20:745-51 (2005); Frucht, S. J., et al. Mov Disord 20:1330-7 (2005). Mean age/symptom duration was 43.9 yrs/12.3 yrs (myoclonus) and 71.2 yrs/26.7 yrs (ET). Patients with myoclonus were examined and videotaped at each visit using the Unified Myoclonus Rating Scale (UMRS), and patients with ET were examined and videotaped using the modified Washington Heights Inwood Genetic Essential Tremor Rating Scale (WHIGET; Appendix 1). Frucht, S. J., et al. Mov Disord 20:1330-7 (2005). After initial baseline examination and videotaping, patients took 1 gm of sodium oxybate by mouth (2 ml of the standard 0.5 gm/ml solution dissolved in 60 ml of water), and one hour later the videotaped examination was repeated. Patients were maintained on a dose of 1 gm T.I.D. (taken before meals) until their next office visit two weeks later, when the examination and videotaping were repeated one hour after receiving 1.5 gm of sodium oxybate. Subsequent visits and dose titrations at two-week intervals were repeated until the maximum dose was reached (3 gm T.I.D), patients were satisfied with the results of treatment, or until they developed side effects that they viewed as troublesome. […]

[3] = test system: alcohol-responsive myoclonus with dystonia; conditions: single patient, recently reported; cited from earlier work
[4] = metabolized to carbon dioxide and water; cited from earlier work

O=C([O-])CCCO.[Na+] [GHB, 4-hydroxybutanoic acid monosodium salt]
resting and stimulus-sensitive myoclonus ([1]; 2 gm twice daily): markedly improved | UMRS I (Self Assessment) score ([1]; 2 gm, 1 h after oral dose): 31 | UMRS VIII (Severity) score ([1]; 2 gm): 2 | UMRS I (Global Disability) score ([1]; 2 gm): 3 | UMRS VI (MD Global Disab.) score ([1]; 2 gm): 2 | UMRS III (Stimulus-Sens.) score ([1]; 2 gm): 5 | UMRS V (Funct. Performance) score ([1]; 2 gm): 10 | UMRS II (Myoclonus @ Rest) score ([1]; 2 gm): 8 | UMRS IV (Action Myoclonus) score ([1]; 2 gm): 70 | UMRS VII (Neg. Myoclonus) score ([1]; 2 gm): 1 | resting and stimulus-sensitive myoclonus ([1]; 3 gm twice daily): virtually disappeared | UMRS VIII (Severity) score ([1]; 3 gm): 2 | UMRS I (Global Disability) score ([1]; 3 gm): 2 | UMRS VI (MD Global Disab.) score ([1]; 3 gm): 2 | UMRS III (Stimulus-Sens.) score ([1]; 3 gm): 1 | UMRS V (Funct. Performance) score ([1]; 3 gm): 8 | UMRS I (Self Assessment) score ([1]; 3 gm): 25 | UMRS II (Myoclonus @ Rest) score ([1]; 3 gm): 3 | UMRS IV (Action Myoclonus) score ([1]; 3 gm): 64 | UMRS VII (Neg. Myoclonus) score ([1]; 3 gm): 1 | UMRS VIII (Severity) score ([1]; 4 gm (2nd visit)): 2 | UMRS I (Global Disability) score ([1]; 4 gm (2nd visit)): 2 | UMRS VI (MD Global Disab.) score ([1]; 4 gm (2nd visit)): 2 | UMRS III (Stimulus-Sens.) score ([1]; 4 gm (2nd visit)): 3 | UMRS V (Funct. Performance) score ([1]; 4 gm (2nd visit)): 4 | UMRS I (Self Assessment) score ([1]; 4 gm (2nd visit)): 15 | UMRS II (Myoclonus @ Rest) score ([1]; 4 gm (2nd visit)): 1 | UMRS IV (Action Myoclonus) score ([1]; 4 gm (2nd visit)): 58 | UMRS VII (Neg. Myoclonus) score ([1]; 4 gm (2nd visit)): 1 | UMRS VIII (Severity) score ([1]; 4 gm): 2 | UMRS I (Global Disability) score ([1]; 4 gm): 2 | UMRS VI (MD Global Disab.) score ([1]; 4 gm): 2 | UMRS III (Stimulus-Sens.) score ([1]; 4 gm): 1 | UMRS V (Funct. Performance) score ([1]; 4 gm): 7 | UMRS I (Self Assessment) score ([1]; 4 gm): 18 | UMRS II (Myoclonus @ Rest) score ([1]; 4 gm): 1 | UMRS IV (Action Myoclonus) score ([1]; 4 gm): 53 | UMRS VII (Neg. Myoclonus) score ([1]; 4 gm): 1 | myoclonus at rest and stimulus-sensitive myoclonus ([1]; UMRS and blinded video rating, divided doses during the day): complete resolution | duration of benefit ([1]; after the first 2 gm dose): approximately 3 hours | time at which benefit peaked ([1]; after the first 2 gm dose): one | time to marked diminution of myoclonus at rest and stimulus-sensitivity ([1]; after the first 2 gm dose): ≤ 20 min | change in clinical examination ([1]; after the initial 1 gm dose): Little difference | time of peak effect ([1]; each dose greater than or equal to 2 gm): one | negative myoclonus, blinded videotape review ([1]; human, in vivo): did not confirm the examiner's impression that negative myoclonus improved | improvement of functional performance (section V) ([1]; writing, spiral copying, pouring, using a spoon): 80% | wear-off of benefit [2]: four to five hours | effect on myoclonus [3]: improved myoclonus | active metabolites [4]: has no active metabolites
